Patent US20200337304A1, “ANTIMICROBIAL PARTICLES AND SANITIZATION METHODS” (priority 2017, published 2020)

Legend:
[1] = test system: Listeria innocua; assay: Inactivation of bacteria in simulated wash water; assay type: cell-based
Experimental: The activity and inactivation of bacteria in simulated wash water exposed to the functionalized particles and conventional chlorine sanitizers were evaluated and compared. More than a 5-log reduction of Listeria innocua in wash water was obtained after a 0.5-min exposure to YCWPs based sanitizer at the concentration of 0.1 mg/mL. In comparison, the conventional chlorine-based sanitizer (sodium hypochlorite) needed 1.5 min to achieve a 5-log reduction. In the presence of organic matter (COD=2000 mg/L), more than 5 log reduction of Listeria innocua in wash water was obtained after 5 min exposure to YCWPs based sanitizer.

[2] = test system: L. innocua 3-day biofilm; assay: Inactivation of 3-day cultured biofilm on plastic surface, plate counting assay; assay type: cell-based, Listeria innocua; conditions: 1-hour exposure
Experimental: FIG. 6A is a graph illustrating inactivation of L. innocua in 3-day biofilm after 1-hour exposure: (a) metabolic activity of biofilm; (b) results of plate counting assay
The antimicrobial activity was characterized based on the metabolic activity of the biofilm measured using Resazurin and a plate counting assay.
The metabolic activity of biofilm after a 1-hour exposure to the particulate sanitizer was evaluated. The time required to achieve maximum fluorescence intensity indicated the relative level of metabolic activity of bacterial cells under different incubation conditions. Listeria biofilms that were incubated with PBS were treated as a control. […] The conventional sanitizer (sodium hypochlorite) only achieved 3-log reduction after a 1-hour exposure.
Pre-formed biofilms were treated with either a selected particle-based sanitizer or with a conventional sanitation procedure for the sanitation of a food contract surface. […] Quantification of the treatment was assessed based on measuring the changes in the metabolic activity of bacterial cells. Quantification of the residual biomass was conducted using crystal violet staining and calcofluor labeling and the standard plate counting of the bacterial cells after dispersing the biofilms using an ultrasonic washer.

[3] = test system: E. coli O157:H7; assay: Inactivation of bacteria on fresh produce (lettuce leaf) surfaces; assay type: cell-based, Escherichia coli O157:H7; conditions: Example 2; 20-min exposure, YCWPs@halamine 0.25 mg/ml; sodium hypochlorite 20 ppm free chlorine
Experimental: FIG. 6B is a graph illustrating inactivation of E. coli O157:H7 on fresh produce surfaces after 20-min exposure to YCWPs@halamine (0.25 mg/ml).
The inactivation of bacteria on fresh produce surfaces was also evaluated. These YCWPs based sanitizer was also found to be effective in causing more than 5 log reductions in E. coli O157:H7 on the surface of lettuce leaves as shown in FIG. 6B. The conventional chlorine-based sanitizer (sodium hypochlorite, 20 ppm free chlorine) achieved less than 2-log reduction of the inoculated bacteria.
To inoculate fresh produce, samples (e.g., spinach, lettuce, tomato, and orange) were first rinsed with 70% ethanol and dried at 25° C. before sample preparation. Fresh produce samples were then prepared by cutting spinach and lettuce leaves into disks with 1 cm of diameter and tomato and orange skins into squares of 9 cm^2. […]
After inoculation and incubation, the meat and fresh produce samples were transferred to a simulated wash bath with added particle-based sanitizers. […] The samples were stirred in a shaking bath a speed of 250 rpm for a pre-determined period (1, 2, 5, and 10 min). […]
To quantify the reduction in microbial count, the samples after treatment were transferred to sterile tubes containing silicon-carbide beads and 10 mL of PBS, and vortexed for 60 seconds to recover the attached bacteria. […]

OCl [sodium hypochlorite]
reduction of bacterial population in wash water in the presence of organic matter ([1]; COD=2000 mg/L, 20 ppm free chlorine, 20 minutes of exposure): did not reduce the bacterial population | time needed to achieve a 5-log reduction of Listeria innocua in wash water ([1]; simulated wash water): 1.5 min | reduction of the bacterial population in the 3-day biofilm [2]: 3 log | reduction in E. coli O157:H7 on the surface of lettuce leaves [3]: less than 2 log
